What all share (assay): Assay B: in vitro antibacterial activity, broth microdilution MIC (NCCLS)
Holding throughout (type): cell-based

The subject of assay [1] is Enterococcus faecalis PIU 1967. The conditions noted are these: Table 2, Assay B, cation-adjusted Mueller Hinton broth, 35° C., 16 to 20 hr; code B = Enterococcus faecalis PIU 1967; unit assumed. The essentials:
(§1)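 MIC is the lowest concentration with no visible growth after serial two-fold dilution in cation-adjusted Mueller Hinton broth, approximately 5×10^5 CFU/mL inoculum, 16-20 h at 35 °C in air (NCCLS). Broth for H. influenzae gets 5 g/L yeast extract, 0.3 mmol/L hematin and 15 mg/L NAD, for S. pneumoniae 3% lysed horse blood; both incubated 20-24 h.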

For the next assay, the system named is Escherichia coli JUHL. The settings on record: Table 2, Assay B, cation-adjusted Mueller Hinton broth, 35° C., 16 to 20 hr; code D = Escherichia coli JUHL; unit assumed. The essentials:
as §1

In assay [2] the test system is Streptococcus pneumoniae ATCC 6303. The conditions noted are these: Table 2, Assay B, Mueller Hinton broth with 3% lysed horse blood, 20 to 24 hr; code F = Streptococcus pneumoniae ATCC 6303; unit assumed. The gist of the method: as §1
Assay [3] concerns Staphylococcus aureus ATCC 6538P. The conditions noted are these: Table 2, Assay B, cation-adjusted Mueller Hinton broth, 35° C., 16 to 20 hr; code A = Staphylococcus aureus ATCC 6538P; unit assumed. The gist of the method:
as §1

Assay [4] has as its system Haemophilus influenzae DILL AMP R. The conditions noted are these: Table 2, Assay B, Mueller Hinton broth with yeast extract, hematin and NAD, 20 to 24 hr; code E = Haemophilus influenzae DILL AMP R; unit assumed. The essentials: as §1

This note sets out measurements from patent publication US20020049223A1, “Quinoline and naphthyridine carboxylic acid antibacterials” (priority 1999, published 2002).

Where only a bound is given, the exact number is not on record here.

On to `COc1c(-c2cc3c(s2)CC(C)(C)CC3O)ccc2c(=O)c(C(=O)O)cn(C3CC3)c12` (centres unmarked) [Example 234, 1-cyclopropyl-7-(4-hydroxy-6,6-dimethyl-4,5,6,7-tetrahydro-1-benzothien-2-yl)-8-methoxy-4-oxo-1,4-dihydro-3-quinolinecarboxylic acid], for which the Antibacterial Activity (MIC's), B in assay [1] is 0.5 µg/mL. In the assay on Escherichia coli JUHL, the Antibacterial Activity (MIC's), D came to 2 µg/mL. The compound also showed an Antibacterial Activity (MIC's), F in assay [2] of 0.5 µg/mL. The same compound yielded an Antibacterial Activity (MIC's), A in assay [3] of 0.03 µg/mL. This compound displayed an Antibacterial Activity (MIC's), E in assay [4] of 0.5 µg/mL.

In assay [1], `COc1c(-c2cc3c(s2)C(N)C(C)CC3)ccc2c(=O)c(C(=O)O)cn(C3CC3)c12.Cl` (centres unmarked) [Example 235, 7-(7-amino-6-methyl-4,5,6,7-tetrahydro-1-benzothien-2-yl)-1-cyclopropyl-8-methoxy-4-oxo-1,4-dihydro-3-quinolinecarboxylic acid hydrochloride] displayed an Antibacterial Activity (MIC's), B of 0.25 µg/mL. In the assay with Escherichia coli JUHL, this compound showed an Antibacterial Activity (MIC's), D of 0.25 µg/mL. The same compound gave an Antibacterial Activity (MIC's), F in assay [2] of 0.06 µg/mL. In assay [3], this compound showed an Antibacterial Activity (MIC's), A of 0.015 µg/mL. Also, the Antibacterial Activity (MIC's), E in assay [4] was determined as 0.06 µg/mL.

Take `COc1c(-c2cc3c(s2)CC(C)(C)CC3)ccc2c(=O)c(C(=O)O)cn(C3CC3)c12` [Example 236, 1-cyclopropyl-7-(6,6-dimethyl-4,5,6,7-tetrahydro-1-benzothien-2-yl)-8-methoxy-4-oxo-1,4-dihydro-3-quinolinecarboxylic acid]: the Antibacterial Activity (MIC's), B in assay [1] was determined as 1 µg/mL. In the assay with Escherichia coli JUHL, this compound had an Antibacterial Activity (MIC's), D of 4 µg/mL. In assay [2], this compound came in with an Antibacterial Activity (MIC's), F of 4 µg/mL. Moreover, the Antibacterial Activity (MIC's), A in assay [3] stood at 0.125 µg/mL. The compound further registered an Antibacterial Activity (MIC's), E in assay [4] of 0.5 µg/mL.

For the compound `COc1c(-c2cc3c(s2)C(N)C(F)CC3)ccc2c(=O)c(C(=O)O)cn(C3CC3)c12.Cl` (centres unmarked) [Example 237, 7-(7-amino-6-fluoro-4,5,6,7-tetrahydro-1-benzothien-2-yl)-1-cyclopropyl-8-methoxy-4-oxo-1,4-dihydro-3-quinolinecarboxylic acid hydrochloride], the Antibacterial Activity (MIC's), B in assay [1] was found to be 0.5 µg/mL. This compound yielded an Antibacterial Activity (MIC's), D in the assay on Escherichia coli JUHL of 0.125 µg/mL. Moreover, in assay [2], the Antibacterial Activity (MIC's), F was determined as 0.125 µg/mL. The compound also registered an Antibacterial Activity (MIC's), A in assay [3] of 0.015 µg/mL. Further, the Antibacterial Activity (MIC's), E in assay [4] came out at 0.03 µg/mL.

Compound `COc1c(-c2cc3c(s2)CC(C)(C)CC3N)ccc2c(=O)c(C(=O)O)cn(C3CC3)c12.Cl` (centres unmarked) [Example 238, 7-(4-amino-6,6-dimethyl-4,5,6,7-tetrahydro-1-benzothien-2-yl)-1-cyclopropyl-8-methoxy-4-oxo-1,4-dihydro-3-quinolinecarboxylic acid hydrochloride] came in with an Antibacterial Activity (MIC's), B in assay [1] of 0.5 µg/mL. In addition, the Antibacterial Activity (MIC's), D in the assay on Escherichia coli JUHL turned out to be 0.25 µg/mL. Further, in assay [2], the Antibacterial Activity (MIC's), F came out at 0.06 µg/mL. The compound further registered an Antibacterial Activity (MIC's), A in assay [3] of 0.03 µg/mL. Further, the Antibacterial Activity (MIC's), E in assay [4] came out at 0.125 µg/mL.

Compound `COc1c(-c2nc3c(s2)C(=O)CCC3)ccc2c(=O)c(C(=O)O)cn(C3CC3)c12` [Example 239, 1-cyclopropyl-8-methoxy-4-oxo-7-(7-oxo-4,5,6,7-tetrahydro-1,3-benzothiazol-2-yl)-1,4-dihydro-3-quinolinecarboxylic acid] came in with an Antibacterial Activity (MIC's), B in assay [1] of 32 µg/mL. The compound further displayed an Antibacterial Activity (MIC's), D with Escherichia coli JUHL of 32 µg/mL. The same compound showed an Antibacterial Activity (MIC's), F in assay [2] above 64 µg/mL. Moreover, in assay [3], the Antibacterial Activity (MIC's), A is 1 µg/mL. Further, the Antibacterial Activity (MIC's), E in assay [4] stood at 4 µg/mL.

`COc1c(-c2cc3c(s2)C(O)C(F)CC3)ccc2c(=O)c(C(=O)O)cn(C3CC3)c12` (centres unmarked) [Example 240, 1-cyclopropyl-7-(6-fluoro-7-hydroxy-4,5,6,7-tetrahydro-1-benzothien-2-yl)-8-methoxy-4-oxo-1,4-dihydro-3-quinolinecarboxylic acid] returned an Antibacterial Activity (MIC's), B in assay [1] of 0.06 µg/mL. Further, in the assay on Escherichia coli JUHL, the Antibacterial Activity (MIC's), D worked out at 0.5 µg/mL. For the same compound, the Antibacterial Activity (MIC's), F in assay [2] is 1 µg/mL. In addition, the Antibacterial Activity (MIC's), A in assay [3] turned out to be 0.004 µg/mL. The compound further displayed an Antibacterial Activity (MIC's), E in assay [4] of 0.03 µg/mL.

With `COc1c(-c2cc3c(s2)C(O)C(C)(C)CC3)ccc2c(=O)c(C(=O)O)cn(C3CC3)c12` (centres unmarked) [Example 241, 1-cyclopropyl-7-(7-hydroxy-6,6-dimethyl-4,5,6,7-tetrahydro-1-benzothien-2-yl)-8-methoxy-4-oxo-1,4-dihydro-3-quinolinecarboxylic acid], the Antibacterial Activity (MIC's), B in assay [1] was determined as 0.25 µg/mL. Besides, in the assay on Escherichia coli JUHL, the Antibacterial Activity (MIC's), D amounted to 1 µg/mL. The compound also had an Antibacterial Activity (MIC's), F in assay [2] of 1 µg/mL. Moreover, in assay [3], the Antibacterial Activity (MIC's), A came out at 0.015 µg/mL. In assay [4], this compound came in with an Antibacterial Activity (MIC's), E of 0.25 µg/mL.

On to `COc1c(-c2cc3c(s2)CCCC3)ccc2c(=O)c(C(=O)O)cn(C3CC3)c12` [Example 243, 1-cyclopropyl-8-methoxy-4-oxo-7-(4,5,6,7-tetrahydro-1-benzothien-2-yl)-1,4-dihydro-3-quinolinecarboxylic acid], for which, in assay [1], the Antibacterial Activity (MIC's), B was found to be 0.25 µg/mL. The Antibacterial Activity (MIC's), D in the assay on Escherichia coli JUHL amounted to 1 µg/mL. In assay [2], the Antibacterial Activity (MIC's), F is 1 µg/mL. Moreover, the Antibacterial Activity (MIC's), A in assay [3] was 0.015 µg/mL. In assay [4], this compound displayed an Antibacterial Activity (MIC's), E of 0.25 µg/mL.

Take `COc1c(-c2cc3c(s2)C(N)C(F)(F)CC3)ccc2c(=O)c(C(=O)O)cn(C3CC3)c12.Cl` (centres unmarked) [Example 244, 7-(7-amino-6,6-difluoro-4,5,6,7-tetrahydro-1-benzothien-2-yl)-1-cyclopropyl-8-methoxy-4-oxo-1,4-dihydro-3-quinolinecarboxylic acid hydrochloride]: in assay [1], the Antibacterial Activity (MIC's), B was found to be 0.125 µg/mL. The Antibacterial Activity (MIC's), D with Escherichia coli JUHL was found to be 1 µg/mL. The compound further showed an Antibacterial Activity (MIC's), F in assay [2] of 1 µg/mL. The Antibacterial Activity (MIC's), A in assay [3] was at most 0.004 µg/mL. Besides, the Antibacterial Activity (MIC's), E in assay [4] came to 0.06 µg/mL.

On to `COc1c(-c2cc3c(s2)C(N)C(C)(C)CC3)ccc2c(=O)c(C(=O)O)cn(C3CC3)c12.Cl` (centres unmarked) [Example 245, 7-(7-amino-6,6-dimethyl-4,5,6,7-tetrahydro-1-benzothien-2-yl)-1-cyclopropyl-8-methoxy-4-oxo-1,4-dihydro-3-quinolinecarboxylic acid hydrochloride], for which the Antibacterial Activity (MIC's), B in assay [1] turned out to be 0.25 µg/mL. Moreover, the Antibacterial Activity (MIC's), D with Escherichia coli JUHL was 0.25 µg/mL. In assay [2], this compound gave an Antibacterial Activity (MIC's), F of 0.125 µg/mL. For the same compound, in assay [3], the Antibacterial Activity (MIC's), A came out at 0.004 µg/mL. In assay [4], this compound registered an Antibacterial Activity (MIC's), E of 0.06 µg/mL.

In assay [1], `CNC1CCCc2cc(-c3c(F)cc4c(=O)c(C(=O)O)cn(C5CC5)c4c3OC)sc21.Cl` (centres unmarked) [Example 246, 1-cyclopropyl-6-fluoro-8-methoxy-7-(7-(methylamino)-4,5,6,7-tetrhydro-1-benzothien-2-yl)-4-oxo-1,4-dihydro-3-quinolinecarboxiylic acid hydrochloride] returned an Antibacterial Activity (MIC's), B of 0.25 µg/mL. Besides, the Antibacterial Activity (MIC's), D in the assay on Escherichia coli JUHL was 0.25 µg/mL. The compound further came in with an Antibacterial Activity (MIC's), F in assay [2] of 0.06 µg/mL. In addition, the Antibacterial Activity (MIC's), A in assay [3] is 0.004 µg/mL. Besides, in assay [4], the Antibacterial Activity (MIC's), E was 0.03 µg/mL.

In turn, `COc1c(-c2cc3c(s2)CC(=O)C3)ccc2c(=O)c(C(=O)O)cn(C3CC3)c12` [Example 247, 1-cyclopropyl-8-methoxy-4-oxo-7-(5-oxo-5,6-dihydro-4H-cyclopenta[b]thien-2-yl)-1,4-dihydro-3-quinolinecarboxylic acid] showed an Antibacterial Activity (MIC's), B in assay [1] of 2 µg/mL. Further, the Antibacterial Activity (MIC's), D in the assay on Escherichia coli JUHL was 4 µg/mL. The Antibacterial Activity (MIC's), F in assay [2] amounted to 0.25 µg/mL. The Antibacterial Activity (MIC's), A in assay [3] stood at 0.125 µg/mL. The compound further registered an Antibacterial Activity (MIC's), E in assay [4] of 0.25 µg/mL.

In turn, `CON=C1Cc2cc(-c3ccc4c(=O)c(C(=O)O)cn(C5CC5)c4c3OC)sc2C1` [Example 248, 1-cyclopropyl-8-methoxy-7-((5E/Z)-5-(methoxyimino)-5,6-dihydro-4H-cyclopenta[b]thien-2-yl)-4-oxo-1,4-dihydro-3-quinolinecarboxylic acid] came in with an Antibacterial Activity (MIC's), B in assay [1] of 0.25 µg/mL. The compound also registered an Antibacterial Activity (MIC's), D in the assay with Escherichia coli JUHL of 2 µg/mL. The compound also registered an Antibacterial Activity (MIC's), F in assay [2] of 0.5 µg/mL. In assay [3], this compound registered an Antibacterial Activity (MIC's), A of 0.03 µg/mL. In assay [4], the Antibacterial Activity (MIC's), E is 0.5 µg/mL.

In turn, `COc1c(-c2cc3c(s2)CC(N)C3)ccc2c(=O)c(C(=O)O)cn(C3CC3)c12.Cl` (centres unmarked) [Example 249, 7-(5-amino-5,6-dihydro-4H-cyclopenta[b]thien-2-yl)-1-cyclopropyl-8-methoxy-4-oxo-1,4-dihydro-3-quinolinecarboxylic acid hydrochloride] came in with an Antibacterial Activity (MIC's), B in assay [1] of 0.125 µg/mL. For the same compound, the Antibacterial Activity (MIC's), D with Escherichia coli JUHL was 0.06 µg/mL. Besides, in assay [2], the Antibacterial Activity (MIC's), F worked out at 0.5 µg/mL. In assay [3], this compound showed an Antibacterial Activity (MIC's), A of 0.03 µg/mL. In assay [4], this compound returned an Antibacterial Activity (MIC's), E of 0.015 µg/mL.

In assay [1], `COC(=O)NC1Cc2cc(-c3ccc4c(=O)c(C(=O)O)cn(C5CC5)c4c3OC)sc2C1` (centres unmarked) [Example 251, 1-cyclopropyl-8-methoxy-7-(5-((methoxvycarbonyl)amino)-5,6-dihydro-4H-cyclopenta[b]thien-2-yl)-4-oxo-1,4-dihydro-3-quiunolinecarboxylic acid] yielded an Antibacterial Activity (MIC's), B of 0.5 µg/mL. Moreover, the Antibacterial Activity (MIC's), D with Escherichia coli JUHL is 2 µg/mL. The compound further displayed an Antibacterial Activity (MIC's), F in assay [2] of 0.25 µg/mL. The compound further gave an Antibacterial Activity (MIC's), A in assay [3] of 0.03 µg/mL. This compound also returned an Antibacterial Activity (MIC's), E in assay [4] of 0.125 µg/mL.
